We go through three compounds from patent US11419843B2, “Small molecule BCL-2 functional converters as cancer therapeutics” (Oregon State University, priority 2016, dated 2022).

Experiment [1] concerns MCF-7/Vector and MCF-7/Bcl-2 cells. The experiment is described as follows: Viability of MCF-7 cells with high and low Bcl-2. It counts as cell-based, human. Conditions: 10% FBS. The method, then: MDA-MB-231 and MCF-7 breast cancer cell lines stably overexpressing Bcl-2 were generated via electroporation and subsequent clonal expansion in G418-containing media. MDA-MB-231 cell clones with sufficiently high expression of Bcl-2 (MDA-MB-231/Bcl-2) determined by western blotting was selected for screening along with their vector controls (MDA-MB-231/Vector). Similarly MCF-7 cells clones were selected for characterization of lead molecules.
Cell viability was determined using CellTiter Glo Luminescent Cell Viability Assay (Promega, Madison, Wis.) as per manufacturer instructions. DAPI stain was used to assess apoptosis. Colony forming assays were performed as described previously.

For a further experiment, the system named is MDA-MB-231/Bcl-2 cells. The experiment is described as follows: Orthotopic breast cancer xenograft in mammary fat pad. The class given is in vivo, NOD SCID mice. As to conditions: 100 mg/kg twice a week; for Immunohistochemistry of tumor sections (TUNEL, Bcl-2 BH3, activated Bax, cleaved caspase-3): end of the study; for Tumor growth: intraperitoneal. As for the experimental part: […] were implanted in the mammary fat pad of NOD SCID mice (N=10). Once palpable tumors were formed MTX was treated at 100 mg/kg twice a week by intraperitoneal injections. Tumor measurements were made with digital calipers twice a week.
106 MDA-MB-231/Bcl-2 cells were implanted in the mammary fat pad of NOD. SCID mice (n=8 per group). Once palpable tumors formed, mice were treated with 100 mg/kg BFC1108 twice a week by i.p. route. Tumor measurements were made with digital calipers twice a week.
All animal experiments were performed as per approved protocols from the IACUC at Oregon State University. 5 week old NOD.SCID mice were procured from Jackson Labs. Treatments were started once palpable tumors were detected. MTX was treated twice a week at 100 mg/kg dose. Body weight was measured twice a week. Tumor burden was measured twice a week using digital calipers.
All animal experiments were performed as per approved protocols from the IACUC at Oregon State University. For the mammary fat pad xenograft study, 5 week old NOD.SCID mice were procured form Jackson labs. About 10^6 cells were injected into both the lower flanks of mammary fat pad in PBS. Palpable tumors were detected in 4 weeks after which treatment with BFC1108 at 100 mg/kg twice a week continued till end of the study. Tumor mass was measured using digital calipers twice a week along with body weight. At the end of the study mice were euthanized and tumors were collected for immunohistochemical analysis.

Experiment [2] relates to MDA-MB-231/Vector and MDA-MB-231/Bcl-2 cells. Put plainly: Clonogenic survival of MDA-MB-231 cells. It counts as cell-based, human.
Experiment [3] has as its system MDA-MB-231 cells with or without the Bcl-2 expression vector. Put plainly: Apoptosis in MDA-MB-231 cells (DAPI, annexin V staining). It counts as cell-based, human. Conditions: 10% FBS.
For a further experiment, the system named is LMD231-Luc cells. The experiment is described as follows: Breast cancer lung metastasis model (tail vein, bioluminescence). It counts as in vivo, nude mice. As to conditions: for Growth of lung metastasis (bioluminescence): intraperitoneal, end of 7 weeks. The method, then:
FIG. 19A About 200,000 LMD-231 cells stably expressing luciferase was injected into the tail vein of 6 week old nude mice. Lung metastasis was formed in 2 weeks. Mice were treated with 100 mg/kg BFC1108 4 times a week by intraperitoneal route. Bioluminescent imaging was performed once a week and quantified.
About 200,000 LMD-231 cells stably expressing luciferase was injected into the tail vein of 6 week old nude mice. Lung metastasis was detectable in 2 weeks after injection of tumor cells. Mice were treated with 50 mg/kg of BFC1103 6 times a week by intraperitoneal injections. Bioluminescent imaging was performed once a week and quantified. * P<0.05.
For the lung metastatic study, 5 week old Nude mice were procured from Jackson Labs. About 200,000 LMD231-Luc2 cells in PBS were injected into the tail vein. Lung metastasis could be detected in 2 weeks' time. Treatments with BFC1108 at 100 mg/kg, 4 times a week, were started a day after the cells were injected. Body weight was measured twice a week. Bioluminescence was measured once a week while the mice are under anesthesia. At the end of the study mice were euthanized and lung tissues were dissected and fixed for immunohistochemical analysis.
For experimental lung metastases model, LMD-231 cells derived from MDA-MB-231 that repeatedly colonized lungs were used23. Lenti viral particles with luciferase expression vector (GenTarget, San Diego, Calif.) was used to transduce LMD-231 cells to obtain high luciferase expressing clone after clonal expansion. The stable expression of luciferase was monitored for 7 weeks in vitro before using in animal experiments.
All animal experiments were performed as per approved protocols from the IACUC at Oregon State University. 5 week old nude mice were procured from Jackson Labs (Bar Harbor, Me.). Treatments were started a day after the LMD-Luc cells (200,000 cells suspended in DPBS) were injected into the lateral tail vein. Body weight was measured twice a week. Bioluminescence was measured twice a week using IVIS Lumina II (PerkinElmer, Waltham, Mass.) as per manufacturer instructions, while the mice were under anesthesia.

Experiment [4] has as its system LNCaP, HepG2, H460, A375, U251, ZR-75-1 cells. Put plainly: Viability of a range of cancer cell types. It counts as cell-based, human. The source says:
Cell titer glo assay (Promega, CA) was used for assessing viability as per manufacturer instructions. DAPI stain was used to assess apoptosis.

For experiment [5], the system named is H460 parental and derived paclitaxel resistant cells. Put plainly: Viability of H460 parental and paclitaxel resistant cells. The class given is cell-based, human. As to conditions: for Viability of H460 resistant vs parental line: 72 hours. The method, then: Percentage viability relative to vehicle treatment was calculated. Representative of three independent assays conducted in triplicate.
FIG. […] Percentage viability relative to vehicle treatment. Representative of three independent assays conducted in triplicate.
Representative of three independent assays conducted in triplicate.
Cell lines were obtained from ATCC and maintained according to manufacturer's instructions. The human lung cancer cell line NCI-H460, H69AR (ATCC) were cultured in RPMI medium (Corning) containing 10% FBS. The human breast cancer cell line MDA-MB-231 was cultured in DMEM medium (Corning) containing 10% FBS. All cell lines were maintained at 5% CO2 and 37° C. Paclitaxel resistant H460 cells were derived by treating cells once a week over 6 weeks, initially with 1 nM paclitaxel and then increasing dose incrementally up to 100 nM. Once resistance was confirmed, paclitaxel was withdrawn from the cells. Resistance to paclitaxel was maintained without presence of paclitaxel measured up to 2 months. A parental line was maintained for a similar number of passages as the resistant line. All experiments were performed using cells that had not been treated with paclitaxel in at least three passages.
Cells of interest were plated at 2000 cells per well in 96-well black tissue culture plate and allowed to adhere to the plate overnight. Viability assays were performed using 10% serum medium unless otherwise stated. Drugs were diluted in supplemented tissue culture medium and added at increasing concentrations, with DMSO as a vehicle control. […] Luminescence was measured using Tropix TR717 Microplate luminometer. Percentage of viable cells is relative to vehicle (100%). As a complementary viability assay, eBioscience Fixable Viability Dye eFluor 660(65-0864) was used to stain dead cells and analyzed using flow cytometry.

The mark [6] stands for this setting: 10 μM, 48 h, colony formation for 2 weeks.

As to `CN(Cc1cnc2nc(N)nc(N)c2n1)c1ccc(C(=O)N[C@@H](CCC(=O)O)C(=O)O)cc1` [MTX, (2S)-2-[[4-[(2,4 diaminopteridin-6-yl)methylmethylamino]benzoyl]amino] pentanedioc acid], in experiment [1] (10 μM, 24 h), the “Bcl-2 dependent effect on viability, MCF-7/Bcl-2 vs MCF-7/Vector” value (“Bcl-2 dependent effect … vs MCF-7/Vector” below) is reported as “Bcl-2 dependent effect of MTX was consistent in estrogen receptor (ER) positive MCF-7 cells over-expressing Bcl-2”. Also, in the experiment on MDA-MB-231/Bcl-2 cells, the “Immunohistochemistry of tumor sections (TUNEL, Bcl-2 BH3, activated Bax, cleaved caspase-3)” value is “caused a change in conformation of Bcl-2 and induced apoptosis in Bcl-2 over-expressing tumors”; the Tumor growth entry is recorded as “significant inhibition of tumor growth”. Also, the “Reduction in colonies formed by MDA-MB-231/Bcl-2 cells compared to vector controls” value in experiment [2] (10 μM MTX, 24 h) is 60%. For the same compound, the “Apoptosis by nuclear condensation and fragmentation (DAPI)” value in experiment [3] (10 μM) is on record as “higher apoptosis rate in the presence of the Bcl-2 protein”. Moreover, the “Apoptosis by annexin V staining” value in experiment [3] (indicated concentrations) was “increased apoptosis in the presence of the Bcl-2 protein”.

As for `CCCCc1ccc(NC(=O)CN(Cc2ccccc2)S(C)(=O)=O)cc1` [BFC1103, N-2-benzyl-N-1-(4-butylphenyl)-N-2-(methylsulfo-nyl) glycinamide], in the experiment on LMD231-Luc cells (50 mg/kg, 6 days per week), the “H&E analysis of lung tissue” value is “potent suppression of tumor growth”; the “Ki67 staining of lung tissue” value is listed as “lung tissues from vehicle treated mice had a significantly higher number of proliferating cells, as measured by Ki67 staining, than the BFC1103 treated mice”; the “Growth of lung metastasis (bioluminescence)” value was “significantly suppressed the growth of lung metastasis”. Also, the “Bcl-2 dependent effect … vs MCF-7/Vector” value in experiment [1] (10 μM, 24 h) was “reduced the viability of MCF-7 cells with high Bcl-2 levels, compared to Bcl-2 low expressing control cells”. In addition, the “Viability of various cancer cell lines” value in experiment [4] (24 h, 10% FBS) was “reduced the viability of a host of cancer cell types including breast cancer ZR-75-1, non-small cell lung cancer H460, melanoma A375, liver cancer HepG2, and prostate cancer LNCaP cells”. The “Clonogenic survival of MDA-MB-231 cells over-expressing Bcl-2 vs control cells” value in experiment [2] (setting [6]) is “formed significantly fewer colonies, compared to control cells”. The “Viability of H460 resistant vs parental line” value in experiment [5] is “reduced viability of resistant line preferentially”.

Consider `CCOc1ccccc1NC(=O)c1cc(Cl)ccc1NC(=O)c1ccc(OC)cc1` [BFC1108, 5-chloro-N-(2-ethoxyphenyl)-2-[(4-methoxybenzoyl)amino]-benzamide], for which, in the experiment on LMD231-Luc cells (100 mg/kg, 4 times a week), the “Ki-67 staining of lung tissue” value is “only vehicle treated animals showed Ki-67 positivity” and the “Growth of lung metastasis (bioluminescence)” value was “suppressed the growth of lung metastasis”. Also, in experiment [1] (48 h), the “Bcl-2 dependent effect … vs MCF-7/Vector” value is on record as “MCF-7 cells with high-Bcl-2 expression are more sensitive to BFC1108”. In addition, in experiment [4] (48 h, 10% serum), the “Viability of a range of cancer cell types” value was “reduce viability in a variety of cancer cell types including LNCaP, HepG2, H460, A375 and U251”. Besides, in the experiment with MDA-MB-231/Bcl-2 cells, the “Immunohistochemistry of tumor sections (TUNEL, Bcl-2 BH3, activated Bax, cleaved caspase-3)” value is recorded as “functional conversion of Bcl-2 leading to activation of intrinsic mitochondrial death pathway was validated in vivo” and the Tumor growth result was “significantly reduced the growth of a xenograft tumor”. For the same compound, in experiment [2] (setting [6]), the “Effect on colony forming ability of low Bcl-2 expressing 231/Vector control cells” value is listed as “not seen” and the “Reduction in colony forming ability of MDA-MB-231/Bcl-2 cells compared to vehicle controls” value came out at 50%. Moreover, in experiment [3] (10 μM, 48 h), the “Apoptosis by annexin V staining” value was “increased apoptosis in MDA-MB-231/Bcl-2 cells was observed”. Also, in experiment [5], the “Viability of H460 resistant vs parental line” value is listed as “reduced viability of resistant line preferentially”. Also, in experiment [5] (paclitaxel 1 nM and BFC1108 20 μM, 24 hours), the “Cell viability, combination with paclitaxel” value is given as “synergistic reduction in cell viability”.
